From patent US8207206B2, “(S,R)-3-phenyl-4,5 dihydro-5-isoxazole acetic acid-nitric oxide and use thereof as anti-cancer and antiviral agent” (OncoNOx APS, priority 2007, dated 2012)

Tests used:
ConA-induced hepatitis = assay: Hepatitis induced by concanavalin (ConA) injection in NMRI mice; type: in vivo; details: prophylactic, all tested doses (0.5 and 1 i.p., 5 mg/mouse p.o.), -24 and -1 h prior to ConA, blood 8 h after ConA, vs vehicle
Method: ConA-induced hepatitis is a cell-mediated immunoinflammatory condition similar to different immunoinflammatory conditions of liver diseases in humans that can be induced in mice by a single intravenous injection of ConA. This disease is characterized by a marked increase in the plasma levels of transaminase shortly (8-24 hours) after ConA challenge and simultaneous infiltration of the liver with neutrophils, macrophages and T cells followed by apoptosis and necrosis of the hepatocytes.
Hepatitis was induced by ConA (Sigma Chemical, St. Louis, Mo.) injection into the tail veins in six to 9 weeks Naval Medical Research Institute (NMRI) male mice. Four groups of mice were treated or i.p. with Git27-NO at the doses of 0.5 and 1 or p.o. at 5 mg/mouse or with the vehicle, −24 and −1 hours prior to ConA. The animals were sacrificed for blood collection 8 hours after Con A injection and plasma alanine aminotransferase (ALT) activity was determined by a standard photometric assay using a bichromatic analyzer.

B16 melanoma = B16 melanoma in C57BL/6 mice, treatment with GIT27-NO; type: in vivo
Method: Primary tumors were induced by subcutaneous (s.c) injection of 2×10^5 B16 melanoma cells in the dorsal right lumbosacral region of syngeneic C57BL/6 mice. […] GIT27-NO was prepared immediately before treatment and was applied i.p. at a dose of 0.5 mg/mouse for 14 consecutive days. The animals were observed until day 30, then sacrificed and tumor growth was determined by three-dimensional measurements of individual tumors from each mouse. Tumor volume was calculated using the following formula: [0.52×a×b^2], where a is the longest and b is the shortest diameter (Smagur et al).

B16 cells = assay: ROS measurement by DHR fluorescence (flow cytometry); type: cell-based, mouse; details: B16, 25 μg/ml, 24 h
Method: (§1) The cells grown in the 6-well plate were stained with 1 μM dihydrorhodamine 123 (DHR) 20 min before the treatment with the test compound. At the end of the cultivation period the cells were detached, washed and resuspended in PBS. Analysis of ROS release was performed with a FACSCalibur and analyzed using CellQuest Pro software (Kaludjerovic 2005).

L929 cells = assay: as above; type: cell-based, mouse; details: L929, 25 μg/ml, 24 h
Method: as §1

## N#Cc1c(COC(=O)CC2CC(c3ccccc3)=NO2)no[n+]1[O-] (racemic) [GIT27-NO, (S,R)-3-phenyl-4,5 dihydro-5-isoxazole acetic acid-nitric oxide]
ConA-induced hepatitis
  plasma ALT activity: significantly reduced
B16 melanoma; B16 melanoma, 0.5 mg/mouse/day from day 10
  tumor growth compared to untreated control animals: significant reduction of tumor growth
B16 melanoma; B16 melanoma, 30 days follow-up, 2 animals died in control group
  survival during follow-up period: survived 30 days
B16 melanoma; s.c. B16 melanoma, i.p. 0.5 mg/mouse/day from day 10, measured 30 days after implantation, control 2.97 ± 6.4, p < 0.05
  Mean tumor volume: 0.82 ± 1.2
B16 cells
  intracellular production of ROS (DHR fluorescence): markedly increased
L929 cells
  intracellular production of ROS (DHR fluorescence): markedly increased
